Measured values from patent publication US20140163012A1, “PYRIDO-/AZEPINO-BENZOFURAN AND PYRIDO-/AZEPINO-BENZOTHIOPHENE MCH-1 ANTAGONISTS, METHODS OF MAKING, AND USE THEREOF” (Albany Molecular Research, Inc., priority 2012, published 2014).

Legend:
human MCH-1 receptor = human MCH-1 receptor (Homo sapiens, UniProt Q99705); assay: Binding assay for human melanin-concentrating hormone (MCH-1) receptor, radioligand displacement on CHO-K1 cell membranes; settings: for inhibition at 1 µM: read-out: MCH1 % inhibition @ 1 uM
human MCH-1 receptor, sequence (Q99705 whole entry): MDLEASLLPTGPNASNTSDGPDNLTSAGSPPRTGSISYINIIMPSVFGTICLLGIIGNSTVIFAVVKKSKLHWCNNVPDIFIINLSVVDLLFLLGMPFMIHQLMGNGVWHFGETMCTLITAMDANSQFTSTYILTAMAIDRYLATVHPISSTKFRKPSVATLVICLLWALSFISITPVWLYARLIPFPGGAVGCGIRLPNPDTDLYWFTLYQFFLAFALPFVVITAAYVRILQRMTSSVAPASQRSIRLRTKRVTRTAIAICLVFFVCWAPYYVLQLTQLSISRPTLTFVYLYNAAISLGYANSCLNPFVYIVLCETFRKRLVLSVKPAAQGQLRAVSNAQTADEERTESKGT
Experimental: Nonspecific binding was determined in the presence of 50 μM 1-(5-(4-cyanophenyl)bicyclo[3.1.0]hexan-2-yl)-3-(4-fluoro-3-(trifluoromethyl)phenyl)-1-(3-(4-methylpiperazin-1-yl)propyl)urea. […] The filters were counted for radioactivity in a liquid scintillation counter (Tri-Carb 2100TR, Packard) using a scintillation cocktail (Ultima Gold MV, Perkin Elmer).
The results are expressed as a percent inhibition of the control radioligand specific binding. The IC50 value (concentration causing a half-maximal inhibition of control specific binding) and Hill coefficient (nH) were determined by non-linear regression analysis of the competition curve using Hill equation curve fitting.

Row | melting point | Ki (human MCH-1 receptor) | inhibition at 1 µM (human MCH-1 receptor) | Structure (SMILES)
1 | 155 to 160 °C | 0.02 µM | – | Cl.O=c1nc(CCc2ccc(Cl)cn2)ccn1-c1ccc2c3c(oc2c1)CCNC3 [Example 101, 4-(2-(5-Chloropyridin-2-yl)ethyl)-1-(1,2,3,4-tetrahydrobenzofuro[3,2-c]pyridin-7-yl)pyrimidin-2(1H)-one hydrochloride]
2 | 227 to 233 °C | 0.145 µM | – | Cc1ccc(COc2ccn(-c3ccc4c5c(oc4c3)CCNC5)c(=O)c2)cn1.Cl [Example 51, 4-((6-Methylpyridin-3-yl)methoxy)-1-(1,2,3,4-tetrahydrobenzofuro[3,2-c]pyridin-7-yl)pyridin-2(1H)-one hydrochloride]
3 | 203 to 209 °C | – | 66% | Cl.O=C1CN(CCc2ccc(F)cn2)CCN1c1ccc2c3c(oc2c1)CCNC3 [Example 70, 4-(2-(5-Fluoropyridin-2-yl)ethyl)-1-(1,2,3,4-tetrahydrobenzofuro[3,2-c]pyridin-7-yl)piperazin-2-one hydrochloride]
4 | 282 to 284 °C | 0.016 µM | – | COc1ccc(-c2ccn(-c3ccc4c5c(oc4c3)CCNC5)c(=O)c2)c(F)c1.Cl [Example 111, 4-(2-Fluoro-4-methoxyphenyl)-1-(1,2,3,4-tetrahydrobenzofuro[3,2-c]pyridin-7-yl)pyridin-2(1H)-one hydrochloride]

More lines, now with the values behind:

Row | Structure (SMILES) | melting point | Ki (human MCH-1 receptor) | inhibition at 1 µM (human MCH-1 receptor)
5 | Cl.O=c1cc(OCc2ccccc2)ccn1-c1ccc2sc3c(c2c1)CNCC3 [Example 67, 4-Benzyloxy-1-(1,2,3,4-tetrahydrobenzo[4,5]thieno[3,2-c]pyridin-8-yl)pyridin-2(1H)-one hydrochloride] | 245 to 247 °C | – | 31%
6 | Cl.O=c1cc(OCc2ccc(F)cn2)ccn1-c1ccc2sc3c(c2c1)CCNCC3 [Example 69, 4-(5-Fluoropyridin-2-yl)methoxy-1-(2,3,4,5-tetrahydro-1H-benzo[4,5]thieno[2,3-d]azepin-9-yl)pyridin-2(1H)-one hydrochloride] | 228 to 230 °C | – | 69%
7 | Cc1cc(OC(F)(F)F)ccc1-c1ccn(-c2ccc3c4c(oc3c2)CCNC4)c(=O)c1.Cl [Example 114, 4-(2-Methyl-4-(trifluoromethoxy)phenyl)-1-(1,2,3,4-tetrahydrobenzofuro[3,2-c]pyridin-7-yl)pyridin-2(1H)-one hydrochloride] | 299 to 301 °C | 0.0073 µM | –
8 | Cl.O=c1cc(OCc2ccccc2)ccn1-c1ccc2sc3c(c2c1)CCNC3 [Example 65, 4-Benzyloxy-1-(1,2,3,4-tetrahydrobenzo[4,5]thieno[2,3-c]pyridin-6-yl)pyridin-2(1H)-one hydrochloride] | 170 °C | 0.36 µM | –
9 | Cl.O=c1cc(OCc2ccc(F)cn2)ccn1-c1ccc2sc3c(c2c1)CCCNC3 [Example 120, 4-(5-Fluoropyridin-2-ylmethoxy)-1-(2,3,4,5-tetrahydro-1H-benzo[4,5]thieno[2,3-c]azepin-7-yl)pyridin-2(1H)-one hydrochloride] | 180 to 182 °C | – | 1.3%
10 | Cl.O=c1cc(OCc2ccc(F)cn2)ccn1-c1ccc2sc3c(c2c1)CCNC3 [Example 66, 4-((5-Fluoropyridin-2-yl)methoxy)-1-(1,2,3,4-tetrahydrobenzo[4,5]thieno[2,3-c]pyridin-6-yl)pyridin-2(1H)-one hydrochloride] | 278 to 280 °C | – | 34%
11 | COc1ccc(-c2ccn(-c3ccc4c5c(oc4c3)CCNC5)c(=O)c2)c(Cl)c1.Cl [Example 112, 4-(2-Chloro-4-methoxyphenyl)-1-(1,2,3,4-tetrahydrobenzofuro[3,2-c]pyridin-7-yl)pyridin-2(1H)-one hydrochloride] | 294 to 297 °C | 0.0069 µM | –
